pIC50: −log10 of the molar value. Calls of active or inactive are those of the source. The rule behind the calls is not given here.
Biological target: CCHF virus vOTU protease domain (L polyprotein)
Assay: CCHF virus vOTU protease inhibition, Pep AMC substrate counterscreen, fluorescence, confirmatory IC50 (AID 720577)
Details: purified vOTU

## CN(C1=C(NC(=O)c2ccccc2)C(=O)c2ccccc2C1=O)C1CCS(=O)(=O)C1 (stereo not given)
  pIC50: 5.02

## O=c1[nH]c(Nc2ccccc2)cc2cc(Br)ccc12
  pIC50: 5.84

## COc1ccc(/C=N/NC(=O)c2nn(-c3ccccc3)c(=O)c3c(N)scc23)cc1
  IC50: inactive

## CC[n+]1c(-c2ccccc2)c2cc(N)ccc2c2ccc(N)cc21
  pIC50: 5.48

## O=C1C(Nc2cccc(O)c2)=C(N2CCCCC2)C(=O)c2ccccc21
  IC50: inactive

## O=C(O)c1ccc(S(=O)(=O)/N=C2\C=C(Nc3ccccc3F)C(=O)c3ccccc32)cc1
  pIC50: 5.91

## O=C(O)c1ccc(NC2=C/C(=N/S(=O)(=O)c3ccccc3)c3ccccc3C2=O)cc1
  pIC50: 5.99

## O=C1C(N2CCOCC2)=C(n2nnc3ccccc32)C(=O)c2ccccc21
  pIC50: 5.20

## Cc1ccc(NC2=C(N3CCCCC3)C(=O)c3ccccc3C2=O)cc1
  IC50: inactive

## COc1cc(CCNC2=CC(=O)c3ncccc3C2=O)ccc1O
  IC50: inactive

## CCOC(=O)c1cc2c(ccn2C)n1Cc1ccccc1C
  IC50: inactive

## COc1cc(NCCCCCCN)c2ncccc2c1OC
  pIC50: 5.22

## Cc1ccc(CNc2ccc(O)cc2)cc1
  IC50: inactive

## O=C1C(Cl)=C(NCCCO)C(=O)c2ccccc21
  IC50: inactive

## CC(C)N(C(=O)Nc1ccc2nsnc2c1)C(C)C
  IC50: > 115 µM (inactive)

## Clc1ccc(C2=CSC3=Nc4cccc5cccc(c45)N23)cc1
  IC50: inactive

## Nc1cc2c(cc1Br)[nH]c(=O)c1ccccc12
  pIC50: 5.34

## O=C1Nc2ccc([N+](=O)[O-])cc2C1=Nc1cccc(CO)c1
  IC50: inactive

## CCOC(=O)c1c(C)[nH]c2c1-c1ccccc1C(=O)C2=O
  pIC50: 6.18

## CN=c1sc2c(n1C)C(=O)c1ccccc1C2=O
  pIC50: 5.24

## Cc1ccc(NC2=C/C(=N/S(=O)(=O)c3cccs3)c3ccccc3C2=O)cc1
  pIC50: 5.75

## COC(=O)c1nc(-c2ccc3c(n2)C(=O)C(N)=C(OC)C3=O)c(N)c(-c2ccc(OC)c(OC)c2O)c1C
  pIC50: 5.59

## CCOC(=O)N1CCN(C2=C(NS(=O)(=O)c3ccc(C)cc3)C(=O)c3ccccc3C2=O)CC1
  IC50: inactive

## Cc1ccc2c(c1C)-c1c(ccc(C)c1C)C(=O)C2=O
  IC50: inactive

## CCOc1ccc2noc3c2c1C(=O)c1ccccc1-3
  IC50: inactive

## O=C1C(=O)c2ccccc2-c2ccccc21
  pIC50: 5.43

## C[n+]1c(-c2ccccc2)cc2c(=Cc3ccc([N+](=O)[O-])cc3)c3ccccc3n21
  pIC50: 5.38

## Nc1scc2c(C(=O)N/N=C/c3ccc(Cl)cc3)nn(-c3ccccc3)c(=O)c12
  IC50: inactive

## O=[N+]([O-])c1ccccc1-c1ccc(C(=S)N2CCCC2)o1
  IC50: inactive

## C[n+]1cccc2cccc([O-])c21
  IC50: inactive

## O=C1C(=O)c2cccnc2-c2ncccc21
  IC50: inactive

## CCC(COC)Oc1cc(NCc2ccccc2)c2ncn(C(C)C)c2c1 (stereo not given)
  IC50: inactive

## Cn1nc(-c2ccccn2)nc2c(=O)n(C)c(=O)nc1-2
  pIC50: 5.94

## Cc1ccc(S(=O)(=O)/N=C2\C=C(Nc3cccc(C(=O)O)c3)C(=O)c3ccccc32)c(C)c1
  pIC50: 5.63

## O=C(O)c1cc(O)c2c(c1)[C@H]([C@H]1c3cc(C(=O)O)cc(O)c3C(=O)c3c(O[C@@H]4O[C@H](CO)[C@@H](O)[C@H](O)[C@H]4O)cccc31)c1cccc(OC3O[C@H](CO)[C@@H](O)[C@H](O)[C@H]3O)c1C2=O (stereo not given in full)
  pIC50: 5.11

## O=C(O)CSc1cc(NS(=O)(=O)c2ccc(Cl)cc2)c2ccccc2c1O
  IC50: inactive

## Cc1cc(NC2=CC(=O)C(=O)c3ccccc32)no1
  IC50: inactive

## O=C(COC(=O)c1ccc([N+](=O)[O-])s1)Nc1ncc(C(F)(F)F)cc1Cl
  IC50: inactive

## COC1=C(N)C(=O)c2nc(C)ccc2C1=O
  pIC50: 5.30

## CC1COCC(C)N1C1=C(Cl)C(=O)c2ccccc2C1=O (stereo not given)
  IC50: inactive

## O=C1Cc2ccccc2C(=O)N1CCc1ccccc1
  pIC50: 5.82

## O=C(N/N=C1\C/C(=N\NC(=O)c2ccncc2)c2ccccc21)c1ccncc1
  pIC50: 5.74

## CCOC(=O)c1c2c(n(Cc3ccccc3)c1C)C(=O)C(=O)c1ccccc1-2
  pIC50: 5.83

## CN(C)c1ccc(C=c2c3cc(O)ccc3n3c2cc(-c2ccccc2)[n+]3C)cc1
  pIC50: 5.36

## CN1CCC/C1=C/C=C1\SC(=S)NC1=O
  IC50: inactive

## O=C(NCCCO)c1ccc2nc(-c3ccco3)c(-c3ccco3)nc2c1
  IC50: inactive

## S=C(Nc1ccc2nsnc2c1)N1CCCCCC1
  IC50: inactive

## COc1cc(NC(=O)COC(=O)c2ccc([N+](=O)[O-])s2)cc(OC)c1OC
  IC50: inactive

## O=C(O)CSc1cc(NS(=O)(=O)c2ccc(Br)cc2)c2ccccc2c1O
  IC50: inactive

## Cc1cnc(C=NNC(N)=S)c2cccc(N)c12
  IC50: inactive

## COc1ccccc1NC(=O)COC(=O)c1ccc([N+](=O)[O-])s1
  IC50: inactive

## O=C(O)c1cccc(NC2=C(n3nnc4ccccc43)C(=O)c3ccccc3C2=O)c1
  IC50: inactive

## CCOC(=O)C1=C(COC(=O)c2ccc([N+](=O)[O-])s2)NC(=O)NC1C (stereo not given)
  IC50: inactive

## COC1=C(Br)C(=O)c2nc(C)ccc2C1=O
  IC50: inactive

## O=C(NC(=S)Nc1ccccc1N1CCCC1)c1ccc(F)cc1
  IC50: > 115 µM (inactive)

## C=CCN1C(=O)/C(=C/c2ccc(OC(C)=O)c(OCC)c2[N+](=O)[O-])SC1=S
  IC50: inactive

## COc1ccc(N2C(=O)[C@@H]3[C@H](C2=O)[C@H]2c4ccccc4C=CN2[C@@H]3C(C)=O)cc1
  IC50: inactive

## COC(CNC(=O)c1ccc2c3c(onc13)-c1ccccc1C2=O)OC
  IC50: inactive

## O=C(O)c1ccc(NC2=C/C(=N/S(=O)(=O)c3cccs3)c3ccccc3C2=O)cc1
  pIC50: 5.85

## O=C(/C=C/c1ccc([N+](=O)[O-])s1)N1CCCCC1
  IC50: > 115 µM (inactive)

## O=S(=O)(Nc1c(S(=O)(=O)c2ccccc2)c2nc3ccccc3nc2n1C1CCCCC1)c1ccccc1
  IC50: > 115 µM (inactive)

## Cc1cnc(C2OCCO2)c2cccc(N)c12
  pIC50: 5.27

## O=C(O)CSc1cc(NS(=O)(=O)c2cccc([N+](=O)[O-])c2)c2ccccc2c1O
  pIC50: 5.12

## O=C(O)CCCNc1cc(N2CCN(C(=O)c3ccco3)CC2)c2noc3c2c1C(=O)c1ccccc1-3
  IC50: inactive

## CCCCCCCCN1C(=O)[C@@H](CC(=O)NCCCOCCCC)C[C@@]2(C(=O)OC)C1=C[C@H](C(C)C)O[C@@H]2C1CC1
  IC50: inactive

## COc1ccc(-n2c3nc4ccccc4nc3c3c(=N)oc(C)nc32)cc1
  IC50: > 115 µM (inactive)

## CCOCCCNC1=C(Cl)C(=O)c2ccccc2C1=O
  IC50: inactive

## O=c1[nH]c(=S)[nH]c2c1C(c1ccc(Br)cc1)c1c([nH]c(=S)[nH]c1=O)O2
  IC50: inactive

## CC1OC(CC(=O)O)CC2=C1C(=O)c1c(O)cccc1C2=O (stereo not given)
  IC50: inactive

## COC1=CC(=O)c2c(ccc3ncnc(N)c23)C1=O
  pIC50: 6.07

## CCc1ccc(S(=O)(=O)Nc2cc(SCC(=O)O)c(O)c3ccccc23)cc1
  IC50: inactive

## Cc1cc(C)c(S(=O)(=O)/N=C2\C=C(Nc3ccc(C(=O)O)cc3)C(=O)c3ccccc32)c(C)c1
  pIC50: 5.34

## S=C(Nc1ccc(Cl)cc1)Nc1cccc2cnccc12
  pIC50: 5.06

## O=C(COC(=O)c1ccc([N+](=O)[O-])s1)Nc1ccc(F)cc1
  IC50: inactive

## O=C1C=C(NCc2ccccc2)c2ccccc2C1=O
  IC50: inactive

## CCCCCCCCCCCCCCCCn1cc[n+](C)c1
  pIC50: 5.15

## O=[N+]([O-])c1cc(O)c2ncccc2c1
  IC50: inactive

## COc1ccc(CNC(=O)c2c(C)oc3c2C(=O)c2ccccc2C3=O)cc1
  IC50: inactive

## Cc1ccc(S(=O)(=O)/N=C2\C=C(Nc3cccc(C(=O)O)c3)C(=O)c3ccccc32)cc1
  pIC50: 5.70

## CC(=O)Nc1ccc(S(=O)(=O)NC2=C(N3CCN(c4ccc(F)cc4)CC3)C(=O)c3ccccc3C2=O)cc1
  IC50: inactive

## CC[C@H](CO)Oc1cc(NCc2cccc(N)c2)c2ncn(C(C)C)c2c1
  IC50: inactive

## CN(C)S(=O)(=O)c1cccc(NC(=S)Nc2cccc3cnccc23)c1
  IC50: inactive

## O=C1C=C(Nc2ccccc2)c2ccccc2C1=O
  IC50: inactive

## CN(C)c1cccc2c1c(NS(=O)(=O)c1cn(C)cn1)nn2C
  IC50: inactive

## Oc1c(N=Nc2nn[nH]n2)ccc2ccccc12
  IC50: inactive

## COc1cc(Br)c(C(=O)c2nccc3cc(OC)c(OC)cc23)cc1OC
  pIC50: 5.95

## CCN(CC)CCCC(C)n1c2nc(=O)[nH]c(=O)c-2nc2cc(Cl)ccc21 (stereo not given)
  pIC50: 5.26

## Cc1oc2c(c1C(=O)O)C(=O)c1ccccc1C2=O
  IC50: inactive

## CN(C)c1ncc(C2=C(Cl)C(=O)C(N3CCCC3)=C(Cl)C2=O)s1
  IC50: inactive

## CCOc1ccc(NC(=S)Nc2ccc3nsnc3c2)cc1
  IC50: inactive

## Cc1cc2c(cc1C)C(=O)C(Br)=C(N)C2=O
  IC50: inactive

## COCCN1C=C2C(=O)C(C)(OC(=O)C3CCCC3)C(=O)C(c3ccccc3)=C2C=C1CCCC(=O)OC (stereo not given)
  IC50: inactive

## Cn1c2ccccc2c2cc(/C=N/NC(=O)c3cc(O)ccc3O)ccc21
  IC50: inactive

## O=C(/C=C/c1ccc(O)cc1)c1ccc(NC2=C(N3CCCCC3)C(=O)c3ccccc3C2=O)cc1
  IC50: inactive

## O=C(NC(=S)Nc1ccccc1N1CCCC1)c1ccccc1Br
  IC50: > 115 µM (inactive)

## C[n+]1c(-c2ccccc2)cc2c(=Cc3ccccc3)c3ccccc3n21
  pIC50: 5.44

## O=C(NC(=S)Nc1ccccc1N1CCCC1)c1cccs1
  IC50: > 115 µM (inactive)

## COc1cc2c(cc1OC)-c1c(OC)c(OC)cc3c1C(C2)N(C)CC3 (stereo not given)
  IC50: > 115 µM (inactive)

## O=C1NC(c2ccc(-c3ccccc3[N+](=O)[O-])o2)C(C(=O)c2ccc(Cl)cc2)C(O)(C(F)(F)F)N1 (stereo not given)
  IC50: inactive

## Cc1coc2c(O)cc3c(c12)OC1(N2CCCCC2)C(=O)NCCCC31 (stereo not given)
  IC50: inactive

## O=C(O)c1cccc(NC2=C(N3CCOCC3)C(=O)c3ccccc3C2=O)c1
  IC50: inactive

## COc1ccc(/C=N/NC(=O)c2nn(-c3ccc(Cl)cc3)c(=O)c3c(N)scc23)cc1
  IC50: inactive

## O=C1C=C(O)c2[nH]c(=O)ccc2C1=O
  IC50: inactive

## CCC(C)n1c(NC(=O)c2ccccc2)c(C#N)c2nc3ccccc3nc21 (stereo not given)
  IC50: > 12.7 µM (inactive)

## C=CCN1C=CC(=C/C=C(/C#N)C(=O)OCC)C=C1
  IC50: inactive

— PubChem BioAssay AID720577 (The Scripps Research Institute Molecular Screening Center, 2013)
